From the supplement of paper PMC10307832

Experiments:
Assay in all cases: relative viability (nuclei count vs DMSO), 5 days (fraction); higher = more cells survive
HCC-827 = system: HCC-827
Method in brief: (§1)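 Relative viability was taken as the ratio of nuclei in treated wells to nuclei in vehicle wells. Lung cancer cell lines in 1536-well plates received compounds by pin tool one day after seeding, either one drug alone or a fixed anchor-drug dose plus five library-drug doses (not always all listed) in √10 steps. Nuclei were counted on 4× images after 5 days of treatment, and values are medians of duplicate plates.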

LCLC-103H = system: LCLC-103H
Method in brief: as §1

H3255 = system: H3255
Method in brief: as §1

NCI-H2405 = system: NCI-H2405
Method in brief: as §1

NCI-H2087 = system: NCI-H2087
Method in brief: as §1

ChaGo-K-1 = system: ChaGo-K-1
Method in brief: as §1

NCI-H520 = system: NCI-H520
Method in brief: as §1

LU99A = system: LU99A
Method in brief: as §1

NCI-H1563 = system: NCI-H1563
Method in brief: as §1

COR-L23 = system: COR-L23
Method in brief: as §1

NCI-H838 = system: NCI-H838
Method in brief: as §1

NCI-H2023 = system: NCI-H2023
Method in brief: as §1

EPLC-272H = system: EPLC-272H
Method in brief: as §1

NCI-H2085 = system: NCI-H2085
Method in brief: as §1

NCI-H1651 = system: NCI-H1651
Method in brief: as §1

HCC-44 = system: HCC-44
Method in brief: as §1

NCI-H650 = system: NCI-H650
Method in brief: as §1

EMC-BAC-2 = system: EMC-BAC-2
Method in brief: as §1

Q: How did the relative viability (HCC-827; first compound 0.08 µM) turn out when `COc1nc(C)cnc1NS(=O)(=O)c1cccnc1-c1ccc(-c2nnco2)cc1` [Zibotentan] + CC(C)C[C@H](NC(=O)[C@H](Cc1ccccc1)NC(=O)c1cnccn1)B(O)O [Bortezomib] (partner 0.002 µM) was run?
A: Its relative viability is 1.08.

Q: What about the relative viability (HCC-827; first compound 0.253 µM) of the same compound?
A: The relative viability was 0.994.

Q: What about the relative viability (HCC-827; first compound 0.8 µM) of the same compound?
A: Its relative viability is 1.05.

Q: And the relative viability (HCC-827; first compound 2.53 µM)?
A: Its relative viability is 1.04.

Q: What about the relative viability (LCLC-103H; first compound 0.08 µM) of the same compound?
A: The relative viability was 1.02.

Q: And the relative viability (LCLC-103H; first compound 0.253 µM)?
A: Its relative viability is 1.

Q: And the relative viability (LCLC-103H; first compound 0.8 µM)?
A: Its relative viability is 1.27.

Q: What about the relative viability (LCLC-103H; first compound 2.53 µM) of the same compound?
A: The relative viability was 1.04.

Q: And the relative viability (H3255; first compound 0.08 µM)?
A: The relative viability was 0.791.

Q: What about the relative viability (H3255; first compound 0.253 µM) of the same compound?
A: Its relative viability is 0.963.

Q: What about the relative viability (H3255; first compound 0.8 µM) of the same compound?
A: Its relative viability is 0.996.

Q: What about the relative viability (H3255; first compound 2.53 µM) of the same compound?
A: Its relative viability is 0.822.

Q: And the relative viability (NCI-H2405; first compound 0.08 µM)?
A: The relative viability was 1.02.

Q: What about the relative viability (NCI-H2405; first compound 0.253 µM) of the same compound?
A: Its relative viability is 1.05.

Q: What about the relative viability (NCI-H2405; first compound 0.8 µM) of the same compound?
A: Its relative viability is 0.991.

Q: And the relative viability (NCI-H2405; first compound 2.53 µM)?
A: The relative viability was 0.963.

Q: And the relative viability (NCI-H2087; first compound 0.08 µM)?
A: Its relative viability is 0.939.

Q: And the relative viability (NCI-H2087; first compound 0.253 µM)?
A: The relative viability was 0.801.

Q: And the relative viability (NCI-H2087; first compound 0.8 µM)?
A: Its relative viability is 0.736.

Q: And the relative viability (NCI-H2087; first compound 2.53 µM)?
A: The relative viability was 0.873.

Q: What about the relative viability (ChaGo-K-1; first compound 0.08 µM) of the same compound?
A: The relative viability was 0.956.

Q: What about the relative viability (ChaGo-K-1; first compound 0.8 µM) of the same compound?
A: The relative viability was 0.977.

Q: What about the relative viability (ChaGo-K-1; first compound 2.53 µM) of the same compound?
A: Its relative viability is 0.99.

Q: And the relative viability (NCI-H520; first compound 0.08 µM)?
A: Its relative viability is 0.541.

Q: And the relative viability (NCI-H520; first compound 0.253 µM)?
A: Its relative viability is 0.532.

Q: And the relative viability (NCI-H520; first compound 0.8 µM)?
A: The relative viability was 0.575.

Q: What about the relative viability (NCI-H520; first compound 2.53 µM) of the same compound?
A: Its relative viability is 0.821.

Q: And the relative viability (LU99A; first compound 0.08 µM)?
A: The relative viability was 1.3.

Q: And the relative viability (LU99A; first compound 0.253 µM)?
A: Its relative viability is 1.13.

Q: What about the relative viability (LU99A; first compound 0.8 µM) of the same compound?
A: Its relative viability is 1.23.

Q: And the relative viability (LU99A; first compound 2.53 µM)?
A: Its relative viability is 1.17.

Q: And the relative viability (NCI-H1563; first compound 0.08 µM)?
A: The relative viability was 0.932.

Q: And the relative viability (NCI-H1563; first compound 0.253 µM)?
A: Its relative viability is 0.648.

Q: And the relative viability (NCI-H1563; first compound 0.8 µM)?
A: Its relative viability is 0.881.

Q: And the relative viability (NCI-H1563; first compound 2.53 µM)?
A: The relative viability was 0.905.

Q: What about the relative viability (COR-L23; first compound 0.08 µM) of the same compound?
A: Its relative viability is 0.999.

Q: What about the relative viability (COR-L23; first compound 0.253 µM) of the same compound?
A: Its relative viability is 0.917.

Q: What about the relative viability (COR-L23; first compound 0.8 µM) of the same compound?
A: Its relative viability is 0.98.

Q: And the relative viability (COR-L23; first compound 2.53 µM)?
A: Its relative viability is 1.07.

Q: What about the relative viability (NCI-H838; first compound 0.08 µM) of the same compound?
A: The relative viability was 0.891.

Q: What about the relative viability (NCI-H838; first compound 0.253 µM) of the same compound?
A: Its relative viability is 0.865.

Q: What about the relative viability (NCI-H838; first compound 0.8 µM) of the same compound?
A: Its relative viability is 0.815.

Q: What about the relative viability (NCI-H838; first compound 2.53 µM) of the same compound?
A: The relative viability was 0.961.

Q: What about the relative viability (NCI-H2023; first compound 0.08 µM) of the same compound?
A: The relative viability was 1.04.

Q: What about the relative viability (NCI-H2023; first compound 0.253 µM) of the same compound?
A: Its relative viability is 0.87.

Q: What about the relative viability (NCI-H2023; first compound 0.8 µM) of the same compound?
A: Its relative viability is 0.909.

Q: And the relative viability (NCI-H2023; first compound 2.53 µM)?
A: Its relative viability is 0.966.

Q: What about the relative viability (EPLC-272H; first compound 0.08 µM) of the same compound?
A: The relative viability was 1.04.

Q: What about the relative viability (EPLC-272H; first compound 0.253 µM) of the same compound?
A: The relative viability was 0.906.

Q: What about the relative viability (EPLC-272H; first compound 0.8 µM) of the same compound?
A: The relative viability was 0.843.

Q: What about the relative viability (EPLC-272H; first compound 2.53 µM) of the same compound?
A: The relative viability was 0.862.

Q: What about the relative viability (NCI-H2085; first compound 0.08 µM) of the same compound?
A: The relative viability was 1.06.

Q: What about the relative viability (NCI-H2085; first compound 0.253 µM) of the same compound?
A: The relative viability was 0.941.

Q: And the relative viability (NCI-H2085; first compound 0.8 µM)?
A: Its relative viability is 1.07.

Q: And the relative viability (NCI-H2085; first compound 2.53 µM)?
A: The relative viability was 1.14.

Q: What about the relative viability (NCI-H1651; first compound 0.08 µM) of the same compound?
A: The relative viability was 0.981.

Q: And the relative viability (NCI-H1651; first compound 0.253 µM)?
A: The relative viability was 0.871.

Q: And the relative viability (NCI-H1651; first compound 0.8 µM)?
A: The relative viability was 0.902.

Q: What about the relative viability (NCI-H1651; first compound 2.53 µM) of the same compound?
A: Its relative viability is 0.972.

Q: What about the relative viability (HCC-44; first compound 0.08 µM) of the same compound?
A: The relative viability was 0.909.

Q: What about the relative viability (HCC-44; first compound 0.253 µM) of the same compound?
A: The relative viability was 0.894.

Q: What about the relative viability (HCC-44; first compound 0.8 µM) of the same compound?
A: Its relative viability is 0.959.

Q: What about the relative viability (HCC-44; first compound 2.53 µM) of the same compound?
A: The relative viability was 0.883.

Q: What about the relative viability (NCI-H650; first compound 0.08 µM) of the same compound?
A: The relative viability was 0.769.

Q: And the relative viability (NCI-H650; first compound 0.253 µM)?
A: The relative viability was 0.742.

Q: What about the relative viability (NCI-H650; first compound 0.8 µM) of the same compound?
A: Its relative viability is 0.726.

Q: What about the relative viability (NCI-H650; first compound 2.53 µM) of the same compound?
A: The relative viability was 0.696.

Q: What about the relative viability (EMC-BAC-2; first compound 0.08 µM) of the same compound?
A: The relative viability was 1.18.

Q: What about the relative viability (EMC-BAC-2; first compound 0.253 µM) of the same compound?
A: Its relative viability is 1.04.

Q: What about the relative viability (EMC-BAC-2; first compound 0.8 µM) of the same compound?
A: The relative viability was 1.07.

Q: What about the relative viability (EMC-BAC-2; first compound 2.53 µM) of the same compound?
A: Its relative viability is 1.09.
